Reference: patent US9150566B2, “2-(1,2,3-triazol-2-yl)benzamide and 3-(1,2,3-triazol-2-YL)picolinamide derivatives as orexin receptor antagonists” (ACTELION PHARMACEUTICALS LTD., priority 2011, dated 2015)
pIC50: −log10 of the molar value. Like-named read-outs stand apart in the source and are kept apart here.

Legend:
human orexin-2 receptor = human orexin-2 receptor (Homo sapiens (Human), UniProt O43614); test: In vitro intracellular calcium measurements (FLIPR), antagonistic activity on orexin-2 receptor; format: cell-based; conditions: read-out: IC50 OX2
Method in brief: (§1)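 Recombinant CHO lines bearing human OX1 or OX2 receptors received test antagonist 120 min before agonist addition.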

human orexin-1 receptor = human orexin-1 receptor (Homo sapiens (Human), UniProt O43613); test: In vitro intracellular calcium measurements (FLIPR), antagonistic activity on orexin-1 receptor; format: cell-based; conditions: read-out: IC50 OX1
Method in brief: as §1

CYP3A4 = CYP3A4 (Homo sapiens (Human), UniProt P08684); test: CYP3A4 inhibition assay (human liver microsomes, testosterone 6β-hydroxylation); conditions: read-out: CYP3A4 IC50, 40 μM testosterone
Experimental: The CYP3A4 inhibition assay was performed using human liver microsomes and testosterone 6β-hydroxylation as a P450 isoform-specific marker. In a total volume of 150 μL, ^14C-testosterone at a final concentration of 40 μM in a 100 mM phosphate buffer (pH 7.4) was incubated in a 96-well plate with 0.3 mg/mL of human liver microsomes in an Eppendorf thermomixer at 37° C. and 400 rpm. […] The reaction was initiated by addition of 15 μL of the NADPH-regenerating system containing the glucose-6-phosphate dehydrogenase and terminated after 7 min with a 75 μL-aliquot of methanol. After centrifugation at 465 g and 4° C. for 20 min, a 50 μL-aliquot of the supernatant was submitted to HPLC according to the method described below. The total concentration of DMSO in the assay including controls without inhibitor was 1%.
Nicardipine was run in parallel as a reference inhibitor of CYP3A4 activity at final concentrations of 0, 0.1, 0.5, 1.0, 5.0, 10, 25, and 50 μM. Stock solutions thereof were prepared in DMSO.
The chromatographic separation of testosterone and 6β-hydroxytestosterone was achieved on a Phenomenex Luna C18(2) column (5 μm, 2.0×10 mm) at RT with a flow rate of 0.6 mL/min. Mobile phases consisted of 1% aqueous formic acid (phase A) and methanol (phase B) using a gradient method with 0.9 min total run time.
The quantification of 6β-hydroxytestosterone was carried out using a quadrupole mass spectrometer equipped with an ionspray interface operating in positive ion mode. The parameters of the mass detector were set as follows: capillary voltage 5 kV, auxiliary gas 40 psi, collision gas 3 mTorr, and transfer capillary temperature 420° C.

[1] = CHO cells expressing human orexin-2 receptor, FLIPR, 3 nM orexin-A agonist, 120 min antagonist incubation, geometric mean if determined several times
[2] = CHO cells expressing human orexin-1 receptor, FLIPR, 3 nM orexin-A agonist, 120 min antagonist incubation, geometric mean if determined several times

human orexin-2 receptor, sequence (O43614 whole entry): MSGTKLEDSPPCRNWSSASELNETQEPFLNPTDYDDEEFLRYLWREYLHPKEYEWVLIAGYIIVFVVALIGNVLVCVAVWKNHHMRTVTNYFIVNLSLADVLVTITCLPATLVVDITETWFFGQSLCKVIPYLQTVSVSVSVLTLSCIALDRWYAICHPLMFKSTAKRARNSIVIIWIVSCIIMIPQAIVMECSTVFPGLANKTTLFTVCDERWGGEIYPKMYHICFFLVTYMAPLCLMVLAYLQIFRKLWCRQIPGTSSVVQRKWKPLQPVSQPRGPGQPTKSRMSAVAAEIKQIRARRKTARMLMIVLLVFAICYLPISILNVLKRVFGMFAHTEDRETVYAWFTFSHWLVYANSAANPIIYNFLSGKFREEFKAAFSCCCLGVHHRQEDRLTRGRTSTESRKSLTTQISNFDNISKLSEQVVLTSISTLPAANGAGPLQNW
CYP3A4, sequence (P08684 whole entry): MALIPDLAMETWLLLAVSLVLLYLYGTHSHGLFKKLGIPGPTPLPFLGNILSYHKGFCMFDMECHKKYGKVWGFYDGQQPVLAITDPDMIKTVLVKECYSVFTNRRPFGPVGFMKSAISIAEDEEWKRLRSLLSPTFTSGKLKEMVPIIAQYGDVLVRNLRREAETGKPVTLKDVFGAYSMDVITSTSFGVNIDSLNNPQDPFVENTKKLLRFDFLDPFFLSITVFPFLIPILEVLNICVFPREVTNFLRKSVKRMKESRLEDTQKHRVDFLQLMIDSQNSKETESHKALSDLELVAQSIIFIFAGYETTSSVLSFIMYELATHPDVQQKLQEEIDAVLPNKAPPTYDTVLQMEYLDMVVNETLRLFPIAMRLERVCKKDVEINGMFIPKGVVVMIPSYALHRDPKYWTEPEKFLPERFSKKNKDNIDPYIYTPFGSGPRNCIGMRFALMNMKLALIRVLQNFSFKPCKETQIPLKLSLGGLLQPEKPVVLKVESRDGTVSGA
human orexin-1 receptor, sequence (O43613 whole entry): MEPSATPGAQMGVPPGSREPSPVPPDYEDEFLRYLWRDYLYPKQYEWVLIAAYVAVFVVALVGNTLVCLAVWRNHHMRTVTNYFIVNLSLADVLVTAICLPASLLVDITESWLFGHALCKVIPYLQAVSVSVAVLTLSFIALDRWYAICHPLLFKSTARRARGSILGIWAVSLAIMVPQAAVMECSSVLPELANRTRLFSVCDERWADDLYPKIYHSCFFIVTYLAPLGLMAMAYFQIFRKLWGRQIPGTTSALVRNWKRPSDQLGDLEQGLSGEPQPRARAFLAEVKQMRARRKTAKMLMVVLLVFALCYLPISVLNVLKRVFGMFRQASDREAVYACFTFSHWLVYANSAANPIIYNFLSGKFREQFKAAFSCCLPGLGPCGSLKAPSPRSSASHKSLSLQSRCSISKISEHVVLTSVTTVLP

SMILES	pIC50 (human orexin-2 receptor; [1])	pIC50 (human orexin-1 receptor; [2])	pIC50 (CYP3A4)	pIC50 (human orexin-1 receptor)	pIC50 (human orexin-2 receptor)
Cc1ccc(-n2nccn2)c(C(=O)N2CCOC[C@@]2(C)Cc2cccc(-n3nccn3)c2)c1 [Example 102, [(R)-3-Methyl-3-(3-[1,2,3]triazol-2-yl-benzyl)-morpholin-4-yl]-(5-methyl-2-[1,2,3]triazol-2-yl-phenyl)-methanone]	5.82	7.60	4.77	–	–
Cc1ccc(C(=O)N2CCOC[C@H]2Cc2cc(Cl)cc(-n3nccn3)c2)c(-n2nccn2)c1 [Example 105, [(R)-3-(3-Chloro-5-[1,2,3]triazol-2-yl-benzyl)-morpholin-4-yl]-(4-methyl-2-[1,2,3]triazol-2-yl-phenyl)-methanone]	7.00	–	4.68	8.70	–
Cc1cccc(C(=O)N2CCOC[C@H]2Cc2cc(Cl)cc(-n3nccn3)c2)c1-n1nccn1 [Example 106, [(R)-3-(3-Chloro-5-[1,2,3]triazol-2-yl-benzyl)-morpholin-4-yl]-(3-methyl-2-[1,2,3]triazol-2-yl-phenyl)-methanone]	6.47	8.52	4.85	–	–
O=C(c1cccc(Cl)c1-n1nccn1)N1CCOC[C@H]1Cc1cccc(-n2nccn2)c1 [Example 107, (3-Chloro-2-[1,2,3]triazol-2-yl-phenyl)-[(R)-3-(3-[1,2,3]triazol-2-yl-benzyl)-morpholin-4-yl]-methanone]	6.36	8.30	4.66	–	–
C[C@@H]1CN(C(=O)c2ccccc2-n2nccn2)[C@H](Cc2cccc(-c3ncccn3)c2)CO1 [Example 108, [(2R,5R)-2-Methyl-5-(3-pyrimidin-2-yl-benzyl)-morpholin-4-yl]-(2-[1,2,3]triazol-2-yl-phenyl)-methanone]	6.07	8.00	4.34	–	–
Cc1ccc(-n2nccn2)c(C(=O)N2C[C@@H](C)OC[C@H]2Cc2cccc(-c3ncccn3)c2)c1 [Example 109, [(2R,5R)-2-Methyl-5-(3-pyrimidin-2-yl-benzyl)-morpholin-4-yl]-(5-methyl-2-[1,2,3]triazol-2-yl-phenyl)-methanone]	6.98	9.00	4.37	–	–
Cc1ccc(C(=O)N2C[C@@H](C)OC[C@H]2Cc2cccc(-c3ncccn3)c2)c(-n2nccn2)c1 [Example 110, [(2R,5R)-2-Methyl-5-(3-pyrimidin-2-yl-benzyl)-morpholin-4-yl]-(4-methyl-2-[1,2,3]triazol-2-yl-phenyl)-methanone]	6.75	8.70	< 4.30	–	–
Cc1cccc(C(=O)N2C[C@@H](C)OC[C@H]2Cc2cccc(-c3ncccn3)c2)c1-n1nccn1 [Example 111, [(2R,5R)-2-Methyl-5-(3-pyrimidin-2-yl-benzyl)-morpholin-4-yl]-(3-methyl-2-[1,2,3]triazol-2-yl-phenyl)-methanone]	6.01	8.15	4.40	–	–
C[C@@H]1CN(C(=O)c2cc(Cl)ccc2-n2nccn2)[C@H](Cc2cccc(-c3ncccn3)c2)CO1 [Example 113, (5-Chloro-2-[1,2,3]triazol-2-yl-phenyl)-[(2R,5R)-2-methyl-5-(3-pyrimidin-2-yl-benzyl)-morpholin-4-yl]-methanone]	6.96	8.70	4.59	–	–
C[C@@H]1CN(C(=O)c2ccc(Cl)cc2-n2nccn2)[C@H](Cc2cccc(-c3ncccn3)c2)CO1 [Example 114, (4-Chloro-2-[1,2,3]triazol-2-yl-phenyl)-[(2R,5R)-2-methyl-5-(3-pyrimidin-2-yl-benzyl)-morpholin-4-yl]-methanone]	7.08	9.00	4.46	–	–
Cc1ccc(-n2nccn2)c(C(=O)N2C[C@@H](C)OC[C@H]2Cc2cc(-n3nccn3)ccc2F)c1 [Example 115, [(2R,5R)-5-(2-Fluoro-5-[1,2,3]triazol-2-yl-benzyl)-2-methyl-morpholin-4-yl]-(5-methyl-2-[1,2,3]triazol-2-yl-phenyl)-methanone]	6.84	8.70	4.62	–	–
Cc1ccc(C(=O)N2C[C@@H](C)OC[C@H]2Cc2cc(-n3nccn3)ccc2F)c(-n2nccn2)c1 [Example 117, [(2R,5R)-5-(2-Fluoro-5-[1,2,3]triazol-2-yl-benzyl)-2-methyl-morpholin-4-yl]-(4-methyl-2-[1,2,3]triazol-2-yl-phenyl)-methanone]	6.97	8.30	4.64	–	–
Cc1cccc(C(=O)N2C[C@@H](C)OC[C@H]2Cc2cc(-n3nccn3)ccc2F)c1-n1nccn1 [Example 118, [(2R,5R)-5-(2-Fluoro-5-[1,2,3]triazol-2-yl-benzyl)-2-methyl-morpholin-4-yl]-(3-methyl-2-[1,2,3]triazol-2-yl-phenyl)-methanone]	6.14	8.00	4.64	–	–
Cc1ccc(-n2nccn2)c(C(=O)N2CCOC[C@H]2Cc2cc(-n3nccn3)ccc2C)c1 [Example 119, [(R)-3-(2-Methyl-5-[1,2,3]triazol-2-yl-benzyl)-morpholin-4-yl]-(5-methyl-2-[1,2,3]triazol-2-yl-phenyl)-methanone]	6.23	8.22	4.72	–	–
Cc1ccc(-n2nccn2)cc1C[C@@H]1COCCN1C(=O)c1ccccc1-n1nccn1 [Example 121, [(R)-3-(2-Methyl-5-[1,2,3]triazol-2-yl-benzyl)-morpholin-4-yl]-(2-[1,2,3]triazol-2-yl-phenyl)-methanone]	5.79	7.59	4.74	–	–
Cc1cccc(C(=O)N2CCOC[C@H]2Cc2cc(-n3nccn3)ccc2Cl)c1-n1nccn1 [Example 122, [(R)-3-(2-Chloro-5-[1,2,3]triazol-2-yl-benzyl)-morpholin-4-yl]-(3-methyl-2-[1,2,3]triazol-2-yl-phenyl)-methanone]	5.79	8.22	4.74	–	–
Cc1ccc(C(=O)N2CCOC[C@H]2Cc2cc(-n3nccn3)ccc2C)c(-n2nccn2)c1 [Example 123, [(R)-3-(2-Methyl-5-[1,2,3]triazol-2-yl-benzyl)-morpholin-4-yl]-(4-methyl-2-[1,2,3]triazol-2-yl-phenyl)-methanone]	–	–	4.57	8.30	6.03
Cc1ccc(-n2nccn2)cc1C[C@@H]1COCCN1C(=O)c1cccc(C)c1-n1nccn1 [Example 124, [(R)-3-(2-Methyl-5-[1,2,3]triazol-2-yl-benzyl)-morpholin-4-yl]-(3-methyl-2-[1,2,3]triazol-2-yl-phenyl)-methanone]	6.00	8.05	4.66	–	–
Cc1ccc(-n2nccn2)c(C(=O)N2CCOC[C@H]2Cc2cc(-n3nccn3)ccc2Cl)c1 [Example 125, [(R)-3-(2-Chloro-5-[1,2,3]triazol-2-yl-benzyl)-morpholin-4-yl]-(5-methyl-2-[1,2,3]triazol-2-yl-phenyl)-methanone]	6.20	8.15	4.66	–	–
O=C(c1ccccc1-n1nccn1)N1CCOC[C@H]1Cc1cc(-n2nccn2)ccc1Cl [Example 126, [(R)-3-(2-Chloro-5-[1,2,3]triazol-2-yl-benzyl)-morpholin-4-yl]-(2-[1,2,3]triazol-2-yl-phenyl)-methanone]	5.83	7.40	4.77	–	–
Cc1cccc(C(=O)N2CCOC[C@H]2Cc2cc(-n3nccn3)ccc2F)c1-n1nccn1 [Example 127, [(R)-3-(2-Fluoro-5-[1,2,3]triazol-2-yl-benzyl)-morpholin-4-yl]-(3-methyl-2-[1,2,3]triazol-2-yl-phenyl)-methanone]	5.82	7.59	4.52	–	–
O=C(c1cc(Cl)ccc1-n1nccn1)N1CCOC[C@H]1Cc1cc(-n2nccn2)ccc1F [Example 129, (5-Chloro-2-[1,2,3]triazol-2-yl-phenyl)-[(R)-3-(2-fluoro-5-[1,2,3]triazol-2-yl-benzyl)-morpholin-4-yl]-methanone]	6.73	7.92	4.59	–	–
COc1ccc(-n2nccn2)c(C(=O)N2CCOC[C@H]2Cc2cc(-n3nccn3)ccc2F)c1 [Example 131, [(R)-3-(2-Fluoro-5-[1,2,3]triazol-2-yl-benzyl)-morpholin-4-yl]-(5-methoxy-2-[1,2,3]triazol-2-yl-phenyl)-methanone]	5.95	8.40	4.46	–	–
Cc1ccc(-n2nccn2)c(C(=O)N2CCOC[C@H]2Cc2cc(-n3nccn3)ccc2F)c1F [Example 132, (2-Fluoro-3-methyl-6-[1,2,3]triazol-2-yl-phenyl)-[(R)-3-(2-fluoro-5-[1,2,3]triazol-2-yl-benzyl)-morpholin-4-yl]-methanone]	5.93	8.10	4.72	–	–
COc1ccc(-n2nccn2)c(C(=O)N2CCOC[C@H]2Cc2cc(-n3nccn3)ccc2F)c1F [Example 133, (2-Fluoro-3-methoxy-6-[1,2,3]triazol-2-yl-phenyl)-[(R)-3-(2-fluoro-5-[1,2,3]triazol-2-yl-benzyl)-morpholin-4-yl]-methanone]	5.59	7.66	4.43	–	–
COc1cc(C(=O)N2CCOC[C@H]2Cc2cc(-n3nccn3)ccc2F)c(-n2nccn2)cc1C [Example 134, [(R)-3-(2-Fluoro-5-[1,2,3]triazol-2-yl-benzyl)-morpholin-4-yl]-(5-methoxy-4-methyl-2-[1,2,3]triazol-2-yl-phenyl)-methanone]	6.47	7.96	4.72	–	–
